# Laboratory results taken from patent publication EP4389886A1, “LACTASE ENZYMES AND METHOD OF PRODUCING A MILK-BASED PRODUCT” (Novozymes A/S, priority 2022, dated 2024).
# Like-named read-outs stand apart in the source and are kept apart here.
# Legend:
# [1] = system: Saphera® (lactase, Novozymes A/S); assay: Lactose turn-over per enzyme molecule in milk at 5°C; type: biochemical
# Procedure: (§1) In a preferred embodiment, the enzyme having lactase activity has an initial lactose turn-over of at least 10 per second per enzyme molecule in milk at 5°C. The initial lactose turn-over may be determined, e.g., when 0-10% of the lactose has been hydrolyzed. The skilled person will know how to determine the initial lactose turn-over per enzyme molecule. For example, it can be a direct measurement of lactose using HPLC or indirect using a glucose detection method.
# [2] = system: Lactozym® Pure (lactase, Novozymes A/S); assay: as above; type: biochemical
# Procedure: as §1
# [3] = system: experimental Bifidobacterium lactase; settings: substrate lactose, cited from earlier work
# [4] = initial rate (4.7% to 4.23% lactose)
smiles,measurement,setting,value
OC[C@H]1O[C@@H](O[C@H]2[C@H](O)[C@@H](O)C(O)O[C@@H]2CO)[C@H](O)[C@@H](O)[C@H]1O (some centres unmarked) [lactose],average lactose turn-over from initial lactose of 4.7% to 0.01% residual lactose,[1],about 18 sec^-1
same,average lactose turn-over from initial lactose of 4.7% to 0.1% residual lactose,[1],about 23 sec^-1
same,initial lactose turn-over per enzyme molecule,[1]; [4],about 89 sec^-1
same,average lactose turn-over from initial lactose of 4.7% to 0.01% residual lactose,[2],about 5 sec^-1
same,average lactose turn-over from initial lactose of 4.7% to 0.1% residual lactose,[2],about 9 sec^-1
same,initial lactose turn-over per enzyme molecule,[2]; [4],about 36 sec^-1
same,Km,[3]; at 5°C,8 mM
same,Km,[3]; at 37°C,13 mM
